Measurements from patent US20160272992A1, “PROTECTION OF PLANTS AGAINST OXIDATIVE STRESS” (priority 2013, published 2016).

Test system: Arabidopsis first leaves
Experiment: Abaxial epidermal cell number of first leaves of plants grown on HU
Format: in vivo, Arabidopsis thaliana
Details: for reduction in epidermal cell number: grown 3 weeks on 1 mM HU, first leaves
Protocol: The smr5 (SALK_100918) and smr7 (SALK_128496) alleles were acquired from the Arabidopsis Biological Research Center. The atm-1, atr-2 and sog1-1 mutants have been described previously (Garcia et al., 2003; Preuss and Britt, 2003; Culligan et al., 2004; Yoshiyama et al., 2009). Unless stated otherwise, plants of Arabidopsis thaliana (L.) Heyhn (ecotype Columbia), were grown under long-day conditions (16 hours of light, 8 hours of darkness) at 22° C. on half-strength Murashige and Skoog (MS) germination medium (Murashige and Skoog, 1962). Arabidopsis plants were treated with HU as described by Cools et al. (2011). For bleomycin treatments, five-day-old seedlings were transferred into liquid MS medium supplemented with 0.3 μg/mL bleomycin. For γ-irradiation treatments, five-day-old in vitro-grown plantlets were irradiated with γ-rays at a dose of 20 Gy. For light treatments, one-week-old seedlings were transferred to continuous high-light conditions (growth rooms kept at 22° C. with 24-hour day/0-hour night cycles and a light intensity of 300-400 μmol m^−2 s^−1) for 2 days, and subsequently retransferred to low-light conditions. The first leaf pair was harvested and incubated in 100% ethanol for epidermis cell drawing as described by De Veylder et al. (2001).
For leaf measurements, first leaves were harvested at 21 days after sowing on control medium, medium supplemented with 1 mM hydroxyurea or 0.3 μg/mL bleomycin. […] The total (blade) area was determined from images digitized directly with a digital camera (Olympus BX51 microscope) mounted on a binocular (Stemi SV 11; Zeiss). From scanned drawing-tube images of the outlines of at least 30 cells of the abaxial epidermis located between 25% to 75% of the distance between the tip and the base of the leaf, halfway between the midrib and the leaf margin, the following parameters were determined: total area of all cells in the drawing and total numbers of pavement and guard cells, from which the average cell area was calculated. […] For confocal microscopy, root meristems were analyzed 2 days after transfer using a Zeiss LSM 510 Laser Scanning Microscope and the LSM Browser version 4.2 software (Zeiss). […] GFP fluorescence was detected with the 488-nm line of an Argon laser. GFP and PI were detected simultaneously by combining the settings indicated above in the sequential scanning facility of the microscope. Acquired images were quantitatively analyzed with the ImageJ v1.45s software (on the World Wide Web at rsbweb.nih.gov/ij/) and Cell-o-Tape plug-ins (French et al., 2012). Chlorophyll a fluorescence parameters were measured using the IMAGING PAM M-Series Chlorofyll Fluorescence (Walz) and associated software. […]

NC(=O)NO [HU, hydroxyurea]
reduction in leaf size and cell number (SMR5^KO SMR7^KO double mutant, 1 mM HU, compared with single knockouts): even less
reduction in epidermal cell number (SMR5^KO plants): 29%
reduction in epidermal cell number (SMR7^KO plants): 30%
reduction in epidermal cell number (control plants (Col-0)): 47%
